Source: patent US20110190492A1, “DIAGNOSTIC PROBE FOR CONFORMATION DISEASE” (TOHOKU UNIVERSITY, priority 2005, published 2011)
Like-named read-outs stand apart in the source and are kept apart here.

How the values were obtained:
[1] = test system: histidine-requiring Salmonella typhimurium TA100 and TA98 strains; conditions: in the presence of S9mix; literature comparison compounds; cited from earlier work
[2] = molecular target: T1, Tg mouse intracerebral amyloid plaque (amyloid β protein) (Homo sapiens, UniProt P05067); experiment: Tg mice with amyloid β deposition: intravenous administration, ex-vivo fluorescence microscopy of brain sections; type: in vivo, Tg mouse (Tg2576 or APPswe2576/Tau JPL3)
T1 construct: a Tg mouse (Tg2576) with amyloid β protein deposition; from tissue

amyloid β protein = molecular target: T2, amyloid β protein (Homo sapiens, UniProt P05067); experiment: Staining test on a brain section of an Alzheimer disease patient (amyloid β protein); type: binding, human (Alzheimer disease patient); conditions: 100 μM compound in 50% ethanol, 10 minutes, fluorescence microscopy
T2 construct: from tissue; host or cells: paraffin-embedded human brain sections (temporal lobe, hippocampus) of Alzheimer disease patients
Excerpt: (1) Brain specimens at the temporal lobe and the hippocampus of patients to which a definitive diagnosis of Alzheimer disease had been given, and those of normal senile persons were used. The specimens were given by our coworker, Fukushimura Hospital, Longevity Medicine Institute, and we were given their consent of use of the specimens for our study purpose by the bereaved of the patients (Fukushimura Hospital Ethical Review Board Approval No. 20).
(2) The paraffin-embedded brain tissue was cut into slices having a thickness of 6 μm or 8 μm, and extended and dried on a slide. The paraffin brain section was processed for paraffin removal in xylene twice for 10 minutes, 100% ethanol twice for 5 minutes, 90% ethanol for 5 minutes and running water for 10 minutes in that order.
(3) For pretreatment prior to the staining treatment with a compound of the invention, the sections were processed for autofluorescence removal with lipofuscin. First, the paraffin-removed sections were dipped in 0.25% KMnO4 solution for 20 minutes. These were washed with PBS, twice for 2 minutes, then dipped in 0.1% K2S2O5/oxalic acid solution for about 5 seconds, and then further washed with PBS, three times for 2 minutes.
(4) About 150 μl of a 100 μM solution of a compound of the invention dissolved in 50% ethanol was dropwise applied to the section and reacted for 10 minutes. After dipped five times in tap water, the section was entrapped with Fluor Save Reagent (Calbiochem), and analyzed through microscopy with a fluorescence microscope (Nikon, Eclipse 80i). The images were taken with a digital camera (Nikon Dxm 1200F or Photometrics' Cool SNAP ES).

[3] = test system: histidine-requiring Salmonella typhimurium TA100 and TA98 strains; experiment: Mutagenicity test (reverse mutation test); type: cell-based; conditions: for relative activity: irrespective of the absence or presence of S9mix
Protocol: In view of their use, it is desirable that the compounds of the invention have no mutagenicity or have little mutagenicity to a level causing no problem. For investigating the gene mutagenesis of the compounds of the invention, herein carried out was a reverse mutation test with histidine-requiring Salmonella typhimurium TA100 and TA98 strains. Two tests were carried out. One is a test for dose determination test; and the other is for mutagenicity.
The test methods and the mutagenicity of the compounds of the invention are mentioned below. In the dose determination test, six doses of 0.160, 0.800, 4.00, 20.0, 100 and 500 μg/plate (common ratio 5) were tried.
As a result of the dose determination test, when the mutagenicity of the test compound was admitted, then the actual test for mutagenicity was carried out, using the dose capable of giving an accurate dose-reaction curve. When no mutagenicity of the test compound was admitted in the dose determination test and when the growth inhibition of the test cells was admitted therein, then the dose to present the growth inhibition was taken as the maximum dose; and when the growth inhibition was not admitted, then a dose of 5000 μg/plate was taken as the maximum dose. With that, the actual test for mutagenicity was carried out on the level of 6 doses (common ratio 2).
First, a test compound was dissolved or suspended in DMSO, then diluted in order to prepare test compound liquids having a varying concentration.
100 μl of a test compound liquid or a negative control (DMSO) solution was put into a sterilized test tube. Then, for the case in the absence of a metabolic activation system (−S9mix), 500 μl of 0.1 mol/liter sodium-phosphate buffer (pH 7.4) was added to it; and for the case in the presence of a metabolic activation system (+S9mix), 500 μl of S9mix was added to it.
Next, 100 μl of the test strain suspension that had been cultivated with shaking at 37° C. for 8 hours was added to it, and preincubated in a shaking thermostat at 37° C. for 20 minutes. After shaken, 2 ml of top agar was added to it, and the contents were mixed.
Next, the mixture was poured onto a minimal glucose agar plate medium (plate) and spread uniformly thereon, then the top agar was solidified, and the plate was transferred into a thermostat and incubated at 37° C. for 48 hours.
Then, the number of the colonies grown through reverse mutation was counted.
For counting it, […]. After area correction and miss-counting correction, the number of the colonies was computed. When the colony analyzer could not be used owing to the deposition of the test compound or the cell growth inhibition, then the number of the colonies was counted with the naked eye.
In case where the number of the colonies through reverse mutation increased two times or more that of the negative control and where the dose dependency or the reproducibility of the increase was admitted, then the tested sample was decided as positive. When the sample was decided as positive, then the relative activity that indicates the relative comparative value of the intensity of the mutagenicity of the test compound was obtained according to the following formula:
Relative Activity={(number of colonies per plate having the concentration)−(number of colonies per negative control plate)}/the value of concentration (mg/plate).

[4] = Acute toxicity test, intravenous administration to mice; type: in vivo; conditions: mice observed for 7 days
Protocol: The compounds of the invention were tested for their acute toxicity through intravenous administration thereof to mice. Four Crj:CD1 male mice formed one test group, and some test groups of those mice were used (the mean body weight of the mice of each group was from 31 to 32 g). A test compound was dissolved in a mixture of 1 N HCl, polyethylene glycol-400 and distilled water, or dissolved in DMSO, and then diluted with distilled water. This was administered to each mouse via its tail vein.

T1 sequence (P05067 672-713 limits assumed): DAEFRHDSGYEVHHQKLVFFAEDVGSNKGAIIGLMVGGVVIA
T2 sequence (P05067 672-713 limits assumed): as above

SMILES	relative activity [1]	binding to amyloid β protein in the brain section of an Alzheimer disease patient (amyloid β protein)	relative activity [3]	further results
CC(=C(C#N)C#N)c1ccc2cc(N(C)CCF)ccc2c1 [FDDNP]	extremely high	–	–	–
CN(C)c1ccc(-c2cn3cc(I)ccc3n2)cc1 [IMPY]	extremely high	–	–	–
Cc1cc2nc(/C=C/c3ccc(N4CCOCC4)s3)sc2cc1C [THK-097, 5,6-dimethyl-2-[2-(5-morpholin-4-yl-thiophen-2-yl)vinyl]-benzothiazole]	–	bound to the amyloid β protein	minus	passage through the blood-brain barrier and binding to Tg mouse intracerebral amyloid plaque ([2]; intravenous administration via tail vein, brain fixed after 1 hour, fluorescence microscopy (THK-097 0.2 mg/kg; THK-525, THK-727, THK-702 4 mg/kg)): passed through the blood-brain barrier, and bound to the Tg mouse intracerebral amyloid plaque; Relative Activity in the absence of S9Mix ([3]; (colonies per plate − colonies per negative control plate)/concentration (mg/plate), in the absence of S9Mix as printed in head): minus; Relative Activity in the presence of S9Mix ([3]; (colonies per plate − colonies per negative control plate)/concentration (mg/plate), in the presence of S9Mix as printed in head): minus^1)
OCC(CF)Oc1ccc2nc(/C=C/c3cnc(N4CCOCC4)s3)oc2c1 (centres unmarked) [THK-702, (E)-2-[2-(2-morpholinothiazol-5-yl)ethenyl]-6-[(1-fluoromethyl-2-hydroxy)ethoxy]-benzoxazole]	–	The white space arrow indicates amyloid β protein	minus	correspondence of binding site with anti-Aβ antibody-stained site of the same section ([2]; Tg2576 mouse, 4 mg/kg intravenous, antibody 4G8): completely corresponded to the anti-Aβ antibody-stained site of the same section; Maximum Permissible Dose [4]: ≧10 mg/kg
